Reference: patent US11607421B2, “Ethanolamine-based lipid biosynthetic compounds, method of making and use thereof” (Metanoi Therapeutics, Inc., priority 2016, dated 2023)
Read-outs that look alike come from different tables or passages of the source. Each block holds one molecule with its values, some of them ahead of it.

Assays:
FR1 = FR1 (Homo sapiens, UniProt P15328); details: read-out: affinity; cited from earlier work
FR2 = FR2 (Homo sapiens, UniProt P14207); details: read-out: affinity; cited from earlier work
Sequence of FR2 (P14207 17-230): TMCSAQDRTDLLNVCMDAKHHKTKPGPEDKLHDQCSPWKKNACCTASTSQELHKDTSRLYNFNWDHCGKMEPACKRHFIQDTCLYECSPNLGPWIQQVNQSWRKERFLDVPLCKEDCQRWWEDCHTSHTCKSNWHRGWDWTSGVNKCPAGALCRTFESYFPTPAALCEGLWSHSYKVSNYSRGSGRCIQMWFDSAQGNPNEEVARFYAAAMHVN

KIFC1 = KIFC1 (Homo sapiens, UniProt Q9BW19); details: ATP-competitive, MT-noncompetitive; cited from earlier work
Sequence of KIFC1 (Q9BW19 whole entry, species assumed): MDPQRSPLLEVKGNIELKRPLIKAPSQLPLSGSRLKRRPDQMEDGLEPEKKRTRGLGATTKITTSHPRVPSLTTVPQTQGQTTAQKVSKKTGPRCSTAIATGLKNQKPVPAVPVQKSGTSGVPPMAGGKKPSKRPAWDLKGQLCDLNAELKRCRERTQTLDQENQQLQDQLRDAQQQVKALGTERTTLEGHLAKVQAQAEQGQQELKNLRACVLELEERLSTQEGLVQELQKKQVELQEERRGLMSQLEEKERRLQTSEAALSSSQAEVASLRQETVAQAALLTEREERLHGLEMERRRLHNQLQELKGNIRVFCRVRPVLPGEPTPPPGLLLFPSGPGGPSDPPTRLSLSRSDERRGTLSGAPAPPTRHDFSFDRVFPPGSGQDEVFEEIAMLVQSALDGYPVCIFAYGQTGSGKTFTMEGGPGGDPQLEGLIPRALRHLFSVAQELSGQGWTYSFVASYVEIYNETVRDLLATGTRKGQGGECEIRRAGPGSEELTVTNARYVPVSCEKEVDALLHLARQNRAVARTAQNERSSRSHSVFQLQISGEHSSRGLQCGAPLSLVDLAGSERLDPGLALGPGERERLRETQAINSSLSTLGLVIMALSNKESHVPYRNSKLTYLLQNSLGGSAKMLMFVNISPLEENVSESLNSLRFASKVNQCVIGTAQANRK
Sequence of KIFC1 (P68363 whole entry partner, species assumed): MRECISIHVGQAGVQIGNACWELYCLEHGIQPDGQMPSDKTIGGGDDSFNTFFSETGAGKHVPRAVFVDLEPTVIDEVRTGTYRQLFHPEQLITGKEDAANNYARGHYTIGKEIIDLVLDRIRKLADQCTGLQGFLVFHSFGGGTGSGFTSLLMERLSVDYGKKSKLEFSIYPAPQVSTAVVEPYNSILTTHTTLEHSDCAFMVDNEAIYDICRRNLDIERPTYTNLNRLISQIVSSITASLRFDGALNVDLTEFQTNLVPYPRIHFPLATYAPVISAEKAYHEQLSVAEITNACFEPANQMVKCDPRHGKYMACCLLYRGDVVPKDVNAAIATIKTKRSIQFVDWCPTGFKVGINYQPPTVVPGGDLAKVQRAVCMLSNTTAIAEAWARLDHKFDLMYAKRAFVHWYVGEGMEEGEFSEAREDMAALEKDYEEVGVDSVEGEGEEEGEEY
Sequence of KIFC1 (Q9BVA1 whole entry partner, species assumed): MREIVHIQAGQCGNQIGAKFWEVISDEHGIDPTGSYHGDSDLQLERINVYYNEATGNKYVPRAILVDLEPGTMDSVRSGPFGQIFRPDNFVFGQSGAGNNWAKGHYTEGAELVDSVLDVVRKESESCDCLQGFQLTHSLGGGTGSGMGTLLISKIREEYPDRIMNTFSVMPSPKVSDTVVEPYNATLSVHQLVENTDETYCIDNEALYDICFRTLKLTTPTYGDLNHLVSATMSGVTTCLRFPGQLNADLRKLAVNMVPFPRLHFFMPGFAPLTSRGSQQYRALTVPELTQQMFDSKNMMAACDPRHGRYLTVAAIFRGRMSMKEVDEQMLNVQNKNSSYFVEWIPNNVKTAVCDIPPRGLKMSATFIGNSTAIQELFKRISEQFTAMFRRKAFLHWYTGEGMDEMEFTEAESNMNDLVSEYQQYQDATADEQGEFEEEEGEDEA

[1] = tested on: BT-549 breast cancer cells; details: cells with amplified centrosomes; cited from earlier work
[2] = Stability in simulated gastric fluid (SGF); format: in vitro ADME; details: 10 μM, SGF pH 1.2, over 1 h
Procedure: (§1) Samples (100 μl) were drawn at 0, 15, 30 and 60 min from SGF reaction-vials and at 0, 30, 60 and 120 min from SIF reaction-vials, quenched with acetonitrile, vortex-mixed, and centrifuged before supernatant analysis by LC-MS/MS analysis. […] For PK studies, a sparse sampling design with 3 mice per time point was used to collect blood samples at 5, 10, 15, 30 min and 1, 2, 3, 4, 5 and 6 h in K2EDTA-coated tubes. The pharmacokinetic parameters (AUClast, Cmax, CL and Vss) were calculated using non-compartmental analysis tool of Phoenix WinNonlin software (version 6.3).
(§2) Given the extreme pH and various digestive enzymes, the GI tract presents a harsh environment to any ingested xenobiotic. Thus, many potential drug candidates are degraded in the GI tract, explaining their decreased bioavailability or inability to reach the target at effective concentrations. Simulated gastric fluid (SGF; pH 1.2) and simulated intestinal fluid (SIF; pH 6.8) closely mimic the GI tract environment and are amenable in vitro systems to evaluate degradation of a compound in GI tract (US Pharmacopoia).
(§3) Simulated gastric fluid was prepared as per U.S. Pharmacopeia (USP) methods. Sodium chloride (2 g) and pepsin (3.2 g, from porcine stomach mucosa) were dissolved in 7.0 ml hydrochloric acid and Milli-Q water to make up the volume to 1000 ml and the pH was adjusted to 1.2. […]

[3] = Stability in simulated intestinal fluid (SIF); format: in vitro ADME; details: 10 μM, SIF pH 6.8, after 2 h
Procedure: as §1, §2, §3

[4] = Blood plasma concentration ratio assay; format: in vitro ADME, mice; details: whole blood; mouse blood, 37° C.; read-out: Blood to plasma ratio (BPR)
Procedure: Values and error bars shown in the figure represent mean and SE, respectively.
100 μl and 300 μl aliquots were collected at time points 0, 15, 30 and 60 min. 100 μl water was added to each of the 100 μl aliquots followed by vortexing, centrifugation at 8000 g for 10 min, and collection of the supernatants for bioanalysis. The 300 μL aliquots were centrifuged at 8000 g for 10 min to separate the plasma, followed by collection of the supernatants for bioanalysis.

[5] = Pharmacokinetic studies, single oral and intravenous dose; format: in vivo, BALB/c mice; details: male, BALB/c, mouse, plasma, analyte PhosE; for Cmax: read-out: Cmax/C0
Procedure: as §1
Nine animals per group were used for PK studies. A sparse sampling design was used to collect blood samples from animals at 5 min, 10 min, 15 min, 30 min, 1, 2, 3, 4, 5, and 6 h in K2EDTA coated tubes. Plasma was collected from blood by centrifugation of samples at 8000 g for 10 min. Plasma samples were stored below −60° C. until further analysis.
PK parameters were calculated from the concentration-time data using the non-compartmental analysis tool of Phoenix WinNolin® software (version 6.3, Pharsight, St Louis, Mo.). The area under the concentration time curve (AUClast) was calculated by the linear trapezoidal rule. Following oral administration, peak concentration (Cmax) and time for the peak concentration (Tmax) were the observed values. The clearance (CL) and volume of distribution (Vss) were estimated following IV dose administration. The elimination rate constant value (k) was obtained by linear regression of the log-linear terminal phase of the concentration-time profile using at least three declining concentrations in terminal phase with a correlation coefficient of >0.8. The terminal half-life value (T1/2) was calculated using the equation ln 2/k. Oral bioavailability was calculated by taking the ratio of dose normalized AUClast following oral administration to IV administration.

PC-3 cells [6] = test: MTT cell proliferation assay; format: cell-based, human; details: MTT, 48 h, pH 7.4
Procedure: (§4) Next, a clonogenic cell survival assay was performed to assess the reproductive capacity of cells upon drug removal.
(§5) After 48 h, drug containing medium was replaced by medium containing MTT (tetrazolium bromide) at a concentration of 0.5 mg/ml. The yellow tetrazolium salt is reduced to insoluble purple formazan by viable cells. After 4 h of incubation in dark, formazan crystals produced by viable cells were dissolved by 200 μl DMSO and the amount of formazan crystals formed was quantified by recording the absorbance at 570 nm using multi-well plate reader. […] After 10 days, colonies were fixed with 4% formaldehyde, stained with crystal violet and counted.

PC-3 cells [7] = test: Clonogenic cell survival (colony) assay; format: cell-based, human; details: 2 mg/ml, 48 h treatment, colonies after 10 days
Procedure: as §4, §5

PC-3 cells [8] = test: Intracellular levels of Etn and PhosE by LC-MS/MS; format: cell-based, human; details: 1 mg/ml, 48 h, pH 7.4
CYP1A2 = CYP1A2 (Homo sapiens, UniProt P05177); test: CYP inhibition in human liver microsomes
CYP2A6 = CYP2A6 (Homo sapiens, UniProt P11509); test: CYP inhibition in human liver microsomes
Sequence of CYP2A6 (P11509 whole entry): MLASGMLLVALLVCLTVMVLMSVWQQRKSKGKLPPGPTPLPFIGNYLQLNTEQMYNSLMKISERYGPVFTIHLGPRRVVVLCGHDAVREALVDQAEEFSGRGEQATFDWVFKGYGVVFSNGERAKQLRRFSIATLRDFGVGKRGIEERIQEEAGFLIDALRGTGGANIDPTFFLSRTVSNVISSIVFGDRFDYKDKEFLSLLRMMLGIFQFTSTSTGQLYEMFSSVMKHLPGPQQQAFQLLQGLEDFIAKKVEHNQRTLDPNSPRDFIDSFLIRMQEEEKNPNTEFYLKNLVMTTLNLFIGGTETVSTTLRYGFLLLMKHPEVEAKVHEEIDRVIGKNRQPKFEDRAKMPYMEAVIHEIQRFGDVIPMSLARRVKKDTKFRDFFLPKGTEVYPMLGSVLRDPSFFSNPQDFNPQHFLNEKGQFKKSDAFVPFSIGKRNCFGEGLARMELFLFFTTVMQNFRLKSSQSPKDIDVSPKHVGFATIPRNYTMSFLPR

CYP2B6 = CYP2B6 (Homo sapiens, UniProt P20813); test: CYP inhibition in human liver microsomes
Sequence of CYP2B6 (P20813 whole entry): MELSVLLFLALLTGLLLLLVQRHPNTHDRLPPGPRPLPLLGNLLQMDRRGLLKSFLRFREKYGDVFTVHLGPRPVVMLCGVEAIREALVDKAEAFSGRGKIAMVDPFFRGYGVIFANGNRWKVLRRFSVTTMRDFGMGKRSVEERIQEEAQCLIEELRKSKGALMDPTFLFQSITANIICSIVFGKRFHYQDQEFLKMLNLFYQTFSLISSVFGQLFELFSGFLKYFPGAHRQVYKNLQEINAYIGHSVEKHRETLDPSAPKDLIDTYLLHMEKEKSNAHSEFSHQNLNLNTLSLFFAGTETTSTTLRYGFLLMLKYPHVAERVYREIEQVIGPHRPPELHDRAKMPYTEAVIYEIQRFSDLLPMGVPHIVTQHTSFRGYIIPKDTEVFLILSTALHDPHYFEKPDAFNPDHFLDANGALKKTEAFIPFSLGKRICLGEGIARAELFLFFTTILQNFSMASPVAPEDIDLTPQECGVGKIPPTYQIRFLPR

CYP2C8 = CYP2C8 (Homo sapiens, UniProt P10632); test: CYP inhibition in human liver microsomes
Sequence of CYP2C8 (P10632 whole entry): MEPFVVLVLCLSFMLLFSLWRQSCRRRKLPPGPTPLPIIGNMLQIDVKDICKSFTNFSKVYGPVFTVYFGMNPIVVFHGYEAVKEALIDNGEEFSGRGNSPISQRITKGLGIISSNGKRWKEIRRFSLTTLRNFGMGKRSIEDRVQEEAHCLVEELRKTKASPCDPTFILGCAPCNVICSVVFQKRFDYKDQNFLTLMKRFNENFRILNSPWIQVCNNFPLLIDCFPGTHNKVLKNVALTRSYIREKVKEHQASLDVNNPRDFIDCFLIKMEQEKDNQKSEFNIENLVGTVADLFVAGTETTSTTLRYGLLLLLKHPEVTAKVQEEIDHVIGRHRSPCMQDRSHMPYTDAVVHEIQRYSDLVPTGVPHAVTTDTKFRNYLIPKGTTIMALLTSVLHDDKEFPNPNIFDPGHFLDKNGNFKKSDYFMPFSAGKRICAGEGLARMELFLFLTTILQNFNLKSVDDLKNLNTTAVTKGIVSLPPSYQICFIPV

CYP2C9 = CYP2C9 (Homo sapiens, UniProt P11712); test: CYP inhibition in human liver microsomes
Sequence of CYP2C9 (P11712 whole entry): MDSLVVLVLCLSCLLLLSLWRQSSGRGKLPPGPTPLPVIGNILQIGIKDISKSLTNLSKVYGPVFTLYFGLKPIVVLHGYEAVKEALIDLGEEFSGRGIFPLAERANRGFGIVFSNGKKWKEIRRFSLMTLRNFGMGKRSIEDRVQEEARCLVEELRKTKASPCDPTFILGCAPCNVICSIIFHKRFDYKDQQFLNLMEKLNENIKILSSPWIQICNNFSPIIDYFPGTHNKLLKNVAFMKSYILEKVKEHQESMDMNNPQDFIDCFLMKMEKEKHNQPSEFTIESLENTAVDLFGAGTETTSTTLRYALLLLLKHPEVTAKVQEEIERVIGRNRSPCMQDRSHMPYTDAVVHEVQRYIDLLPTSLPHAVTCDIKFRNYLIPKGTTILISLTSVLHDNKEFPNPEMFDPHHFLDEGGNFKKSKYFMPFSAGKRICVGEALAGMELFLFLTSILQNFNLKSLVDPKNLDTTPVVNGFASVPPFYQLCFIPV

CYP2C19 = CYP2C19 (Homo sapiens, UniProt P33261); test: CYP inhibition in human liver microsomes
CYP2D6 = CYP2D6 (Homo sapiens, UniProt P10635); test: CYP inhibition in human liver microsomes
CYP2E1 = CYP2E1 (Homo sapiens, UniProt P05181); test: CYP inhibition in human liver microsomes
Sequence of CYP2E1 (P05181 whole entry): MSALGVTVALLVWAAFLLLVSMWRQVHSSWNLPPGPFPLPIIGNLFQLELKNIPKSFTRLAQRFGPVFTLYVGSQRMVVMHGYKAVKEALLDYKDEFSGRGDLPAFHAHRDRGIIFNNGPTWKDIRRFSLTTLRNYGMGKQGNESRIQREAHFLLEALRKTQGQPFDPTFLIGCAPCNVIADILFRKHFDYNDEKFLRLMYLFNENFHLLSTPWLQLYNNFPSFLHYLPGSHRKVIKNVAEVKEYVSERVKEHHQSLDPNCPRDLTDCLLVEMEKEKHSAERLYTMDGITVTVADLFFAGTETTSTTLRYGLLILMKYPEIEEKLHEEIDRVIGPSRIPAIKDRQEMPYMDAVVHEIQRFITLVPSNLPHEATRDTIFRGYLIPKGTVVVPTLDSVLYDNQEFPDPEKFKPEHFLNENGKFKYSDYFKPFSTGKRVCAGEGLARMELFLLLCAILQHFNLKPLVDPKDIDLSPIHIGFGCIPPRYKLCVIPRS

CYP3A4 = CYP3A4 (Homo sapiens, UniProt P08684); test: CYP inhibition in human liver microsomes
Sequence of CYP3A4 (P08684 whole entry): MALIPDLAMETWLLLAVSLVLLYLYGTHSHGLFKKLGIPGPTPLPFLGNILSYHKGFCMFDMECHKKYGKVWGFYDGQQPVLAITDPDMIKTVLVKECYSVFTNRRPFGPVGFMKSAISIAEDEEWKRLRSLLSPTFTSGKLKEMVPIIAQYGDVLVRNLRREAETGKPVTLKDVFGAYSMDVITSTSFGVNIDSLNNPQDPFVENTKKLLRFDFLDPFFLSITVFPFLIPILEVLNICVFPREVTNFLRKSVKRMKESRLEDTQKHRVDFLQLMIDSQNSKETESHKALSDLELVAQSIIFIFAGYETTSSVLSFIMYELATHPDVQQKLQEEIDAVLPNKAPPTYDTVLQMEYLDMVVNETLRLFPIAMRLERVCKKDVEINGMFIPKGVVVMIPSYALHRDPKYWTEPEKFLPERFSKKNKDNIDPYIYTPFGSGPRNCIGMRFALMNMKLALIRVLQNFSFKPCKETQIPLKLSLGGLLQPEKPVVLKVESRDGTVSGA

Sequence of FR1 (P15328 25-234): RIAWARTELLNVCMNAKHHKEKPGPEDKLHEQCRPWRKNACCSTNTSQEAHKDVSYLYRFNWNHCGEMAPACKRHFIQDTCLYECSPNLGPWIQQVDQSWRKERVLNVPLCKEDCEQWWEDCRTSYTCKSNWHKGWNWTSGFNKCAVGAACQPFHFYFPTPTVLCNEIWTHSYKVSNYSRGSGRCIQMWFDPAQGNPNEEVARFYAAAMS

SMILES: CN1c2c(nc(N)[nH]c2=O)NC[C@@H]1CNc1ccc(C(=O)N[C@@H](CCC(=O)O)C(=O)O)cc1 [6S 5-methyltetrahydrofolate]
Kd (FR1): 0.055 µM
Kd (FR2): 0.001 µM

SMILES: CCCc1cc(C(=O)N[C@H](Cc2ccc(-c3cccc(OC(F)(F)F)c3)nc2)C(=O)N[C@@H]2CCNC2)sc1C [AZ82]
Ki (KIFC1): 0.043 µM
centrosome declustering [1]: causes centrosome declustering

stability in SGF [2]: stable
decrease in concentration in SIF [3]: ~35%
blood plasma ratio at 50 μM [4]: < 1.5
half-life ([5]; iv, 3 mg/kg, PhosE 3 mg/kg iv): < 1 h
AUC(0-t) ([5]; PhosE 3 mg/kg iv): 490 ng·h/mL
MRT last ([5]; PhosE 3 mg/kg iv): 0.79 h
clearance ([5]; PhosE 3 mg/kg iv): 102 mL/min/kg
Cmax ([5]; PhosE 3 mg/kg iv): 1250 ng/mL
Vd ([5]; PhosE 3 mg/kg iv, read-out: Vss): 4.82 L/kg
bioavailability ([5]; PhosE 60 mg/kg po vs 3 mg/kg iv, read-out: F (oral bioavailability)): 19%
AUC(0-t) ([5]; PhosE 60 mg/kg po): 1890 ng·h/mL
Tmax ([5]; PhosE 60 mg/kg po): 1 h
Cmax ([5]; PhosE 60 mg/kg po): 1140 ng/mL
IC50 (CYP1A2): > 100 µM
IC50 (CYP2A6): > 100 µM
IC50 (CYP2B6): > 100 µM
IC50 (CYP2C8): > 100 µM
IC50 (CYP2C9): > 100 µM
IC50 (CYP2C19): > 100 µM
IC50 (CYP2D6): > 100 µM
IC50 (CYP2E1): > 100 µM
IC50 (CYP3A4): > 100 µM
IC50 (CYP3A4; 3A4-mida: CYP3A4 substrate midazolam, human liver microsomes): > 100 µM
IC50 (CYP3A4; 3A4-testo: CYP3A4 substrate testosterone, human liver microsomes): > 100 µM
SMILES: NCCOP(=O)(O)O [PhosE, phosphoethanolamine]
inhibition of PC-3 cell proliferation (PC-3 cells [6]): only showed limited inhibition of PC-3 cell proliferation up to 0.5 mg/ml
decrease in colony numbers compared to control cells (PC-3 cells [7]): ineffective in decreasing colony numbers
increase in intracellular PhosE levels compared to control cells (PC-3 cells [8]): ~15 fold

SMILES: Nc1nc2c(c(=O)[nH]1)N(C=O)C(CNc1ccc(C(=O)N[C@@H](CCC(=O)O)C(=O)O)cc1)CN2 (stereo partly drawn) [leucovorin, 6S 5-formyltetrahydrofolate]
Kd (FR1): 0.8 µM
Kd (FR2): 0.007 µM
